Literature values, collected in patent US10595479B2, “Induced mutagenesis” (Purdue Research Foundation, priority 2014, dated 2020).

Test system: maize
Settings: pollen EMS protocol in maize, tested molecularly

## CCOS(C)(=O)=O [EMS, ethyl methanesulfonate]
  density of mutations: about 2 mutations per Mb of DNA
